# Measurements taken from ChEMBL document CHEMBL3244027, “Syntheses, analgetic activity, and physical dependence capacity of 5-phenyl-6,7-benzomorphan derivatives” (J Med Chem, 1979).
# Activity calls are given as the source filed them. The rule behind the calls is not given here.
# Key:
# Mus musculus [1] = experiment: Analgetic activity against CF-1 mouse assessed as increase in reaction time at 320 mg/kg, po by heat stimulus induced tail flick response assay; type: functional, organism-based; parameters: dose 320 mg/kg
# Mus musculus [2] = experiment: Analgetic activity in po dosed CF1S mouse assessed as writhing by phenylquinone writhing test; type: functional
# Mus musculus [3] = experiment: Analgetic activity in sc dosed CF1S mouse assessed as writhing by phenylquinone writhing test; type: functional
# [4] = Mus musculus, CF1S, po, read-out: ED50
# [5] = Mus musculus, CF1S, sc, read-out: ED50
smiles,measurement,setting,value
CC1C2Cc3ccc(O)cc3C1(c1ccccc1)CCN2CCC(C#N)(c1ccccc1)c1ccccc1 (stereo in doubt; 167) [listing 1 of 2 here],Activity,Mus musculus [1],inactive
CC1C2Cc3ccc(O)cc3C1(c1ccccc1)CCN2CCc1cccs1.Cl.O (centres undefined),ED50,Mus musculus [2]; [4],> 100 mg/kg
same,ED50,Mus musculus [3]; [5],> 100 mg/kg
Cl.Oc1ccc2c(c1)C1(c3ccccc3)CCN(CC3CCC3)C(C2)C1 (racemic),ED50,Mus musculus [2],124 mg/kg
same,ED50,Mus musculus [3],6.2 mg/kg
CC1C2Cc3ccc(O)cc3C1(c1ccccc1)CCN2C(=O)C1CC1 (centres undefined),ED50,Mus musculus [3]; [5],> 100 mg/kg
same,Activity,Mus musculus [1],inactive
CC(C)=CCN1CCC2(c3ccccc3)c3cc(OC(=O)c4ccccc4)ccc3CC1C2C (centres undefined),ED50,Mus musculus [3]; [5],> 100 mg/kg
CCCN1CCC2(c3ccccc3)c3cc(O)ccc3CC1C2C.Cl (stereo in doubt; 173),ED50,Mus musculus [3],>100 mg/kg
C[C@@H]1C2Cc3ccc(O)cc3C1(c1ccccc1)CCN2C (some centres undefined),ED50,Mus musculus [3]; [5],0.5 mg/kg
CC1C2Cc3ccc(O)cc3C1(c1ccccc1)CCN2CCCN(C)C (centres undefined),ED50,Mus musculus [3]; [5],> 120 mg/kg
CC1C2Cc3ccc(O)cc3C1(c1ccccc1)CCN2C(=O)C12CC3CC(CC(C3)C1)C2 (centres undefined),ED50,Mus musculus [3]; [5],> 100 mg/kg
CC(C)O.Cl.Oc1ccc2c(c1)C1(c3ccccc3)CCN(CC3CC3)C(C2)C1 (stereo in doubt; 144),ED50,Mus musculus [3],>33 mg/kg
CC1C2Cc3ccc(O)cc3C1(c1ccccc1)CCN2C1CCCC1.Cl (centres undefined),ED50,Mus musculus [3]; [5],120 mg/kg
COc1ccc2c(c1)C1(c3ccccc3)CCN(C)C(C2)C1 (racemic),ED50,Mus musculus [3]; [5],14 mg/kg
CCCCC(=O)Oc1ccc2c(c1)C1(c3ccccc3)CCN(CC3CCC3)C(C2)C1.Cl (racemic),ED50,Mus musculus [2]; [4],> 100 mg/kg
Cc1ccc(S(=O)(=O)Oc2ccc3c(c2)C2(c4ccccc4)CCN(C)C(C3)C2C)cc1.Cl (centres undefined),ED50,Mus musculus [3]; [5],> 100 mg/kg
CC(C)=CCN1CCC2(c3ccccc3)c3cc(OC(=O)c4c(Cl)cccc4Cl)ccc3CC1C2C (centres undefined),ED50,Mus musculus [3]; [5],> 100 mg/kg
CC1C2Cc3ccc(O)cc3C1(c1ccccc1)CCN2C (centres undefined),ED50,Mus musculus [3]; [5],4.2 mg/kg
CCCCCN1CCC2(c3ccccc3)c3cc(O)ccc3CC1C2C (centres undefined),ED50,Mus musculus [2]; [4],> 100 mg/kg
C=CCN1CCC2(c3ccccc3)CC1Cc1ccc(O)cc12 (racemic),ED50,Mus musculus [3],>100 mg/kg
CC1C2Cc3ccc(O)cc3C1(c1ccccc1)CCN2CCC(c1ccccc1)c1ccccc1 (stereo in doubt; 188),Activity,Mus musculus [1],inactive
CC1C2Cc3ccc(O)cc3C1(c1ccccc1)CCN2CC1CCC1.CS(=O)(=O)O (racemic),ED50,Mus musculus [2]; [4],> 100 mg/kg
C[C@@H]1C2Cc3ccc(O)cc3C1(c1ccccc1)CCN2CC(=O)O (some centres undefined),ED50,Mus musculus [3]; [5],> 100 mg/kg
Oc1ccc2c(c1)C1(c3ccccc3)CCNC(C2)C1 (centres undefined),Activity,Mus musculus [1],inactive
Br.Oc1ccc2c(c1)C1(c3ccccc3)CCN(CCN3CCOCC3)C(C2)C1 (racemic),ED50,Mus musculus [3]; [5],> 100 mg/kg
same,Activity,Mus musculus [1],inactive
CC1C2Cc3ccc(OC(=O)c4ccc(F)cc4)cc3C1(c1ccccc1)CCN2C (centres undefined),ED50,Mus musculus [3]; [5],0.7 mg/kg
Br.CC1C2Cc3ccc(O)cc3C1(c1ccccc1)CCN2CCC(c1ccccc1)c1ccccc1.O (stereo in doubt; 166),ED50,Mus musculus [3]; [5],> 100 mg/kg
CC1C2Cc3ccc(OC(=O)c4ccccc4)cc3C1(c1ccccc1)CCN2C (centres undefined),ED50,Mus musculus [3]; [5],0.5 mg/kg
C=C(Br)CN1CCC2(c3ccccc3)CC1Cc1ccc(O)cc12 (racemic),ED50,Mus musculus [3]; [5],> 100 mg/kg
Cl.Oc1ccc2c(c1)C1(c3ccccc3)CCN(CCc3ccccc3)C(C2)C1 (centres undefined),ED50,Mus musculus [3]; [5],7.4 mg/kg
CC1C2Cc3ccc(O)cc3C1(c1ccccc1)CCN2CCO (racemic),ED50,Mus musculus [2]; [4],> 100 mg/kg
same,ED50,Mus musculus [3]; [5],44 mg/kg
CC(C)O.Cl.Oc1ccc2c(c1)C1(c3ccccc3)CCN(CC3CC3)C(C2)C1 (racemic),ED50,Mus musculus [2]; [4],107 mg/kg
same,ED50,Mus musculus [3]; [5],33 mg/kg
CC(C)=CCN1CCC2(c3ccccc3)c3cc(O)ccc3CC1C2C.Cl (stereo in doubt; 207),ED50,Mus musculus [3]; [5],39 mg/kg
CC(C)=CCN1CCC2(c3ccccc3)c3cc(OS(=O)(=O)c4ccc(C)cc4)ccc3CC1C2C (centres undefined),ED50,Mus musculus [3]; [5],> 100 mg/kg
CC(C)O.Oc1ccc2c(c1)C1(c3ccccc3)CCNC(C2)C1 (centres undefined),ED50,Mus musculus [3]; [5],> 100 mg/kg
C=CCN1CCC2(c3ccccc3)CC1Cc1ccc(O)cc12 (stereo in doubt; 146) [listing 1 of 2 here],Activity,Mus musculus [1],inactive
C[C@@H]1C2Cc3ccc(O)cc3C1(c1ccccc1)CCN2CCC(O)(c1ccccc1)c1ccccc1 (some centres undefined),ED50,Mus musculus [3]; [5],> 100 mg/kg
same,Activity,Mus musculus [1],inactive
CC1C2Cc3ccc(O)cc3C1(c1ccccc1)CCN2C(=O)C12CC3CC(CC(C3)C1)C2.O (centres undefined),ED50,Mus musculus [2]; [4],> 100 mg/kg
Br.CC1C2Cc3ccc(O)cc3C1(c1ccccc1)CCN2CC(=O)c1ccccc1 (centres undefined),ED50,Mus musculus [3]; [5],> 100 mg/kg
C#CCN1CCC2(c3ccccc3)CC1Cc1ccc(OC(=O)c3ccccc3)cc12 (racemic),ED50,Mus musculus [3]; [5],> 100 mg/kg
C=CCN1CCC2(c3ccccc3)CC1Cc1ccc(O)cc12 (stereo in doubt; 146) [listing 2 of 2 here],ED50,Mus musculus [3],>30 mg/kg
CN1CCC2(c3ccc(O)cc3)CC1Cc1ccc(O)cc12 (racemic),Activity,Mus musculus [1],inactive
CC1C2Cc3ccc(OC(=O)c4ccc([N+](=O)[O-])cc4)cc3C1(c1ccccc1)CCN2C (centres undefined),ED50,Mus musculus [3]; [5],0.6 mg/kg
CC1C2Cc3ccc(O)cc3C1(c1ccccc1)CCN2CC1CCC1.Cl (stereo in doubt; 171),ED50,Mus musculus [3],>100 mg/kg
CCCCCN1CCC2(c3ccccc3)CC1Cc1ccc(O)cc12.Cl (racemic),ED50,Mus musculus [3]; [5],23 mg/kg
same,Activity,Mus musculus [1],inactive
Oc1ccc(C23CCNC(Cc4ccc(O)cc42)C3)cc1 (racemic),Activity,Mus musculus [1],inactive
C/C(Cl)=C/CN1CCC2(c3ccccc3)CC1Cc1ccc(O)cc12 (racemic),ED50,Mus musculus [3]; [5],> 100 mg/kg
CC(C)=CCN1CCC2(c3ccccc3)c3cc(O)ccc3CC1C2C.Cl (stereo in doubt; 169),ED50,Mus musculus [3],41 mg/kg
CN1CCC2(c3ccccc3)CC1Cc1ccc(O)cc12.Cl (stereo in doubt; 42),ED50,Mus musculus [3],5.6 mg/kg
C=CCN1CCC2(c3ccccc3)c3cc(O)ccc3CC1C2C.CCCO.Cl (centres undefined),ED50,Mus musculus [3]; [5],> 100 mg/kg
COc1ccc2c(c1)C1(c3ccccc3)CCN(CC3CCC3)C(C2)C1.Cl.O (racemic),ED50,Mus musculus [2]; [4],> 100 mg/kg
CC(C)O.CC1C2Cc3ccc(O)cc3C1(c1ccccc1)CCN2CC1CC1.Cl (stereo in doubt; 218),ED50,Mus musculus [3],>100 mg/kg
CC1C2Cc3ccc(O)cc3C1(c1ccccc1)CCN2CCC(C#N)(c1ccccc1)c1ccccc1 (stereo in doubt; 167) [listing 2 of 2 here],ED50,Mus musculus [2]; [4],> 100 mg/kg
same,ED50,Mus musculus [3]; [5],110 mg/kg
CC(C)=CCN1CCC2(c3ccccc3)CC1Cc1ccc(O)cc12 (racemic),ED50,Mus musculus [3]; [5],15 mg/kg
Cl.Oc1ccc2c(c1)C1(c3ccccc3)CCN(CC3CCC3)C(C2)C1 (stereo in doubt; 145),ED50,Mus musculus [2],34 mg/kg
same,ED50,Mus musculus [3],2.8 mg/kg
CC1C2Cc3ccc(OC(=O)c4c(Cl)cccc4Cl)cc3C1(c1ccccc1)CCN2C (centres undefined),ED50,Mus musculus [3]; [5],> 100 mg/kg
C=CCN1CCC2(c3ccccc3)CC1Cc1ccc(O)cc12 (stereo in doubt; 143),ED50,Mus musculus [3],>80 mg/kg
Cl.Oc1ccc2c(c1)C1(c3ccccc3)CCN(CC3CC3)C(C2)C1 (centres undefined),ED50,Mus musculus [3]; [5],15 mg/kg
C#CCN1CCC2(c3ccccc3)c3cc(OC)ccc3CC1C2C (centres undefined),ED50,Mus musculus [3]; [5],> 100 mg/kg
CC1C2Cc3ccc(O)cc3C1(c1ccccc1)CCN2C/C=C/Cl (centres undefined),ED50,Mus musculus [3]; [5],> 100 mg/kg
same,Activity,Mus musculus [1],inactive
C[C@@H]1C2Cc3ccc(OS(C)(=O)=O)cc3C1(c1ccccc1)CCN2C (some centres undefined),ED50,Mus musculus [3]; [5],5.3 mg/kg
COc1ccc2c(c1)C1(c3ccccc3)CCN(C)C(C2)C1.Cl.O (centres undefined),ED50,Mus musculus [3]; [5],16 mg/kg
Br.CC1C2Cc3ccc(O)cc3C1(c1ccccc1)CCN2CC1COc2ccccc2O1 (centres undefined),ED50,Mus musculus [2]; [4],> 100 mg/kg
same,ED50,Mus musculus [3]; [5],84 mg/kg
CC1C2Cc3ccc(O)cc3C1(c1ccccc1)CCN2 (stereo in doubt; 112),Activity,Mus musculus [1],inactive
CN1CCC2(c3ccccc3)CC1Cc1ccccc12.O=C(O)C(O)C(O)C(=O)O (stereo in doubt; 36),ED50,Mus musculus [3]; [5],5.5 mg/kg
CCCN1CCC2(c3ccccc3)c3cc(O)ccc3CC1C2C.Cl (stereo in doubt; 163),ED50,Mus musculus [2]; [4],> 100 mg/kg
same,ED50,Mus musculus [3],14 mg/kg
Oc1ccc2c(c1)C1(c3ccccc3)CCNC(C2)C1 (racemic),ED50,Mus musculus [3]; [5],> 100 mg/kg
Oc1ccc2c(c1)C1(c3ccccc3)CCN(C/C=C/c3ccccc3)C(C2)C1 (racemic),Activity,Mus musculus [1],Active
CN1CCC2(c3ccccc3)CC1Cc1ccccc12.O=C(O)C(O)C(O)C(=O)O (stereo in doubt; 37),ED50,Mus musculus [3],8 mg/kg
Cl.O=C(CCCN1CCC2(c3ccccc3)CC1Cc1ccccc12)c1ccc(F)cc1 (racemic),ED50,Mus musculus [2]; [4],> 150 mg/kg
CS(=O)(=O)O.c1ccc(CCN2CCC3(c4ccccc4)CC2Cc2ccccc23)cc1 (centres undefined),ED50,Mus musculus [3]; [5],> 100 mg/kg
CC1C2Cc3ccc(O)cc3C1(c1ccccc1)CCN2CCC(c1ccccc1)c1ccccc1 (stereo in doubt; 166),Activity,Mus musculus [1],inactive
CN1CCC2(c3ccccc3)CC1Cc1ccc(O)cc12.Cl (stereo in doubt; 43),ED50,Mus musculus [3]; [5],5.5 mg/kg
CC(=O)CCN1CCC2(c3ccccc3)c3cc(O)ccc3CC1[C@H]2C.CS(=O)(=O)O (some centres undefined),ED50,Mus musculus [2]; [4],> 100 mg/kg
CC1C2Cc3ccc(O)cc3C1(c1ccccc1)CCN2CC1CCC1.Cl (stereo in doubt; 219),ED50,Mus musculus [2]; [4],300 mg/kg
same,ED50,Mus musculus [3],28 mg/kg
Oc1ccc2c(c1)C1(c3ccccc3)CCN(CCc3cccs3)C(C2)C1 (racemic),Activity,Mus musculus [1],inactive
CC(C)O.CC1C2Cc3ccc(O)cc3C1(c1ccccc1)CCN2CC1CC1.Cl (stereo in doubt; 170),ED50,Mus musculus [3]; [5],100 mg/kg
